Patent US20170058282A1 (priority 2015, published 2017)

Experiments:
[1] = biological target: T1, Lactococcus lactis heme-responsive transcription factor HrtR, SEQ ID NO: 1 (in E. coli MG1655, HrtR+ChuA+PhrtAB-luxCDABE) (Lactococcus cremoris, UniProt A2RIY0); assay: Hemin response of E. coli MG1655 with HrtR+ChuA+PhrtAB-luxCDABE (luminescence); assay type: cell-based
T1 sequence (A2RIY0 1-189): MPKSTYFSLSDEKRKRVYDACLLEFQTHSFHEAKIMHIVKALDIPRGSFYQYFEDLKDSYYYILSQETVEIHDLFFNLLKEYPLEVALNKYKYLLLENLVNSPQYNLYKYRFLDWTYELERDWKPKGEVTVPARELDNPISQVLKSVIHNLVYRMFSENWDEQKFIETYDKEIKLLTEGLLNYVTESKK

[2] = biological target: T2, Lactococcus lactis heme-responsive transcription factor HrtR, SEQ ID NO: 1 (in E. coli MG1655, no ChuA) (Lactococcus cremoris, UniProt A2RIY0); assay: Hemin response of E. coli MG1655 with HrtR and PhrtAB- or PL(HrtO)-luxCDABE without ChuA (luminescence); assay type: cell-based
T2 construct: PhrtAB- or PL(HrtO)-luxCDABE reporter
T2 sequence (A2RIY0 1-189): T1 sequence (A2RIY0 1-189)

SMILES | response concentration range ([1]; with ChuA) | time to detectable differences in luminescence ([1]; depending on the concentration of hemin used) | response of gene circuit to extracellular hemin [2]
C=CC1=C(C)c2cc3[nH]c(cc4nc(cc5[nH]c(cc1n2)c(C)c5CCC(=O)O)C(CCC(=O)O)=C4C)c(C)c3C=C.[Fe+2] [heme] | sub-micromolar range | – | –
C=CC1=C(C)c2cc3[nH]c(cc4nc(cc5[nH]c(cc1n2)c(C)c5CCC(=O)O)C(CCC(=O)O)=C4C)c(C)c3C=C.[Fe+3] [hemin] | – | 30 to 60 min | insensitive
